From PubChem BioAssay (NCI)
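Protocol summary: plate cells (96-well), add compound at 5 concentrations, incubate 48 h, interpolate endpoints linearly. GI50: concentration for 50% inhibition of growth. Definition used: TGI = concentration required for complete inhibition of growth.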

Legend:
Assay in all cases: growth of human tumour cells (NCI), 48 h
786-0 renal = tested on: 786-0 renal
A498 renal = tested on: A498 renal
A549 NSCLC = tested on: A549 NSCLC
ACHN renal = tested on: ACHN renal
BT-549 breast = tested on: BT-549 breast
CAKI-1 renal = tested on: CAKI-1 renal
CCRF-CEM leukemia = tested on: CCRF-CEM leukemia
COLO 205 colon = tested on: COLO 205 colon
DU-145 prostate = tested on: DU-145 prostate
EKVX NSCLC = tested on: EKVX NSCLC
HCC-2998 colon = tested on: HCC-2998 colon
HCT-116 colon = tested on: HCT-116 colon
HCT-15 colon = tested on: HCT-15 colon
HL-60(TB) leukemia = tested on: HL-60(TB) leukemia
HOP-62 NSCLC = tested on: HOP-62 NSCLC
HOP-92 NSCLC = tested on: HOP-92 NSCLC
HS 578T breast = tested on: HS 578T breast
HT29 colon = tested on: HT29 colon
IGROV1 ovarian = tested on: IGROV1 ovarian
K-562 leukemia = tested on: K-562 leukemia
KM12 colon = tested on: KM12 colon
LOX IMVI melanoma = tested on: LOX IMVI melanoma
M14 melanoma = tested on: M14 melanoma
MALME-3M melanoma = tested on: MALME-3M melanoma
MCF7 breast = tested on: MCF7 breast
MDA-MB-435 = tested on: MDA-MB-435
MDA-MB-468 breast = tested on: MDA-MB-468 breast
MOLT-4 leukemia = tested on: MOLT-4 leukemia
NCI-H226 lung = tested on: NCI-H226 lung
NCI-H23 lung = tested on: NCI-H23 lung
NCI-H460 lung = tested on: NCI-H460 lung
NCI-H522 lung = tested on: NCI-H522 lung
NCI/ADR-RES ovarian = tested on: NCI/ADR-RES ovarian
OVCAR-3 ovarian = tested on: OVCAR-3 ovarian
OVCAR-4 ovarian = tested on: OVCAR-4 ovarian
OVCAR-5 ovarian = tested on: OVCAR-5 ovarian
OVCAR-8 ovarian = tested on: OVCAR-8 ovarian
PC-3 prostate = tested on: PC-3 prostate
RPMI-8226 leukemia = tested on: RPMI-8226 leukemia
RXF 393 renal = tested on: RXF 393 renal
SF-268 CNS = tested on: SF-268 CNS
SF-295 CNS = tested on: SF-295 CNS
SF-539 CNS = tested on: SF-539 CNS
SK-MEL-2 melanoma = tested on: SK-MEL-2 melanoma
SK-MEL-28 melanoma = tested on: SK-MEL-28 melanoma
SK-MEL-5 melanoma = tested on: SK-MEL-5 melanoma
SK-OV-3 ovarian = tested on: SK-OV-3 ovarian
SN12C renal = tested on: SN12C renal
SNB-19 CNS = tested on: SNB-19 CNS
SNB-75 CNS = tested on: SNB-75 CNS
SW-620 colon = tested on: SW-620 colon
T-47D breast = tested on: T-47D breast
TK-10 renal = tested on: TK-10 renal
U251 CNS = tested on: U251 CNS
UACC-257 melanoma = tested on: UACC-257 melanoma
UACC-62 melanoma = tested on: UACC-62 melanoma
MDA-MB-231 breast = tested on: MDA-MB-231 breast
SR leukemia = tested on: SR leukemia
UO-31 renal = tested on: UO-31 renal

## O=C(N/N=C/c1ccc(B(O)O)o1)c1[nH]c2ccc(Br)cc2c1-c1ccccc1
786-0 renal
  GI50: 17.9 µM
  TGI: 54.6 µM
A498 renal
  GI50: 23.3 µM
  TGI: > 100 µM
A549 NSCLC
  GI50: 27.1 µM
  TGI: > 100 µM
ACHN renal
  GI50: 29.6 µM
  TGI: > 100 µM
BT-549 breast
  GI50: 12 µM
  TGI: 33.3 µM
CAKI-1 renal
  GI50: 30.8 µM
  TGI: > 100 µM
CCRF-CEM leukemia
  GI50: 17.5 µM
  TGI: 55.4 µM
COLO 205 colon
  GI50: 19.8 µM
  TGI: 46.6 µM
DU-145 prostate
  GI50: 32.3 µM
  TGI: > 100 µM
EKVX NSCLC
  GI50: 28.6 µM
  TGI: > 100 µM
HCC-2998 colon
  GI50: 25.4 µM
  TGI: 90.2 µM
HCT-116 colon
  GI50: 16.9 µM
  TGI: > 100 µM
HCT-15 colon
  GI50: 22.6 µM
  TGI: > 100 µM
HL-60(TB) leukemia
  GI50: 13 µM
  TGI: 37.1 µM
HOP-62 NSCLC
  GI50: 11.9 µM
  TGI: 36.6 µM
HOP-92 NSCLC
  GI50: 11.7 µM
  TGI: 52.8 µM
HS 578T breast
  GI50: 8.91 µM
  TGI: 93.6 µM
HT29 colon
  GI50: 20.6 µM
  TGI: 50.9 µM
IGROV1 ovarian
  GI50: 25.7 µM
  TGI: > 100 µM
K-562 leukemia
  GI50: 5.46 µM
  TGI: 45 µM
KM12 colon
  GI50: 19.2 µM
  TGI: > 100 µM
LOX IMVI melanoma
  GI50: 18.1 µM
  TGI: > 100 µM
M14 melanoma
  GI50: 19 µM
  TGI: > 100 µM
MALME-3M melanoma
  GI50: 26.9 µM
  TGI: > 100 µM
MCF7 breast
  GI50: 24.7 µM
  TGI: > 100 µM
MDA-MB-435
  GI50: 3.66 µM
  TGI: > 100 µM
MDA-MB-468 breast
  GI50: 19.3 µM
  TGI: 57.2 µM
MOLT-4 leukemia
  GI50: 20.3 µM
  TGI: 73.3 µM
NCI-H226 lung
  GI50: 45.8 µM
  TGI: > 100 µM
NCI-H23 lung
  GI50: 26.5 µM
  TGI: > 100 µM
NCI-H460 lung
  GI50: 29.1 µM
  TGI: > 100 µM
NCI-H522 lung
  GI50: 2.94 µM
  TGI: 13.5 µM
NCI/ADR-RES ovarian
  GI50: 12.2 µM
  TGI: 56.2 µM
OVCAR-3 ovarian
  GI50: 14.8 µM
  TGI: > 100 µM
OVCAR-4 ovarian
  GI50: 47 µM
  TGI: > 100 µM
OVCAR-5 ovarian
  GI50: 27.5 µM
  TGI: > 100 µM
OVCAR-8 ovarian
  GI50: 17.7 µM
  TGI: 41.6 µM
PC-3 prostate
  GI50: 12.9 µM
  TGI: > 100 µM
RPMI-8226 leukemia
  GI50: 29.5 µM
  TGI: > 100 µM
RXF 393 renal
  GI50: 5.38 µM
  TGI: 24.1 µM
SF-268 CNS
  GI50: 16.1 µM
  TGI: > 100 µM
SF-295 CNS
  GI50: 13.1 µM
  TGI: 43.1 µM
SF-539 CNS
  GI50: 13 µM
  TGI: 31.3 µM
SK-MEL-2 melanoma
  GI50: 13.5 µM
  TGI: 43.5 µM
SK-MEL-28 melanoma
  GI50: 10.7 µM
  TGI: > 100 µM
SK-MEL-5 melanoma
  GI50: 14.7 µM
  TGI: 35.5 µM
SK-OV-3 ovarian
  GI50: 21.8 µM
  TGI: 67.3 µM
SN12C renal
  GI50: 24.4 µM
  TGI: > 100 µM
SNB-19 CNS
  GI50: 21.1 µM
  TGI: 89.7 µM
SNB-75 CNS
  GI50: 3.26 µM
  TGI: 20.6 µM
SW-620 colon
  GI50: 35.7 µM
  TGI: > 100 µM
T-47D breast
  GI50: 21.4 µM
  TGI: > 100 µM
TK-10 renal
  GI50: 37.1 µM
  TGI: > 100 µM
U251 CNS
  GI50: 16.5 µM
  TGI: 44.4 µM
UACC-257 melanoma
  GI50: 19.1 µM
  TGI: > 100 µM
UACC-62 melanoma
  GI50: 3.24 µM
  TGI: 15.5 µM

## CN1CCN(c2ccc(C(=O)/C=C/c3ccc(OC(F)F)cc3)cc2)CC1
786-0 renal
  GI50: 15.3 µM
  TGI: 39.6 µM
A498 renal
  GI50: 14.2 µM
  TGI: 27.8 µM
A549 NSCLC
  GI50: 11.7 µM
  TGI: 25.8 µM
ACHN renal
  GI50: 14.8 µM
  TGI: 27.9 µM
BT-549 breast
  GI50: 13 µM
  TGI: 29 µM
CAKI-1 renal
  GI50: 13.9 µM
  TGI: 27.2 µM
CCRF-CEM leukemia
  GI50: 4.3 µM
  TGI: 37.7 µM
COLO 205 colon
  GI50: 14.2 µM
  TGI: 30.9 µM
DU-145 prostate
  GI50: 13.6 µM
  TGI: 26.7 µM
EKVX NSCLC
  GI50: 13.1 µM
  TGI: 25.8 µM
HCC-2998 colon
  GI50: 3.76 µM
  TGI: 14 µM
HCT-116 colon
  GI50: 2.87 µM
  TGI: > 100 µM
HCT-15 colon
  GI50: 6.88 µM
  TGI: 19.7 µM
HL-60(TB) leukemia
  GI50: 4.7 µM
  TGI: 33.4 µM
HOP-62 NSCLC
  GI50: 15.4 µM
  TGI: 30.4 µM
HOP-92 NSCLC
  GI50: 6.21 µM
  TGI: 20.9 µM
HS 578T breast
  GI50: 14.9 µM
  TGI: 46.2 µM
HT29 colon
  GI50: 3.41 µM
  TGI: 15.3 µM
IGROV1 ovarian
  GI50: 12.1 µM
  TGI: 25.2 µM
K-562 leukemia
  GI50: 2.8 µM
  TGI: > 100 µM
KM12 colon
  GI50: 5.2 µM
  TGI: 22.1 µM
LOX IMVI melanoma
  GI50: 3.53 µM
  TGI: 13 µM
M14 melanoma
  GI50: 12.3 µM
  TGI: 38.6 µM
MALME-3M melanoma
  GI50: 13.1 µM
  TGI: 25.8 µM
MCF7 breast
  GI50: 2.74 µM
  TGI: 11 µM
MDA-MB-231 breast
  GI50: 13.5 µM
  TGI: 26.3 µM
MDA-MB-435
  GI50: 3 µM
  TGI: 10.7 µM
MDA-MB-468 breast
  GI50: 3.52 µM
  TGI: 14.5 µM
MOLT-4 leukemia
  GI50: 11.6 µM
  TGI: 54.9 µM
NCI-H226 lung
  GI50: 10.8 µM
  TGI: 24.3 µM
NCI-H23 lung
  GI50: 11.8 µM
  TGI: 24.3 µM
NCI-H460 lung
  GI50: 14.4 µM
  TGI: 30.1 µM
NCI-H522 lung
  GI50: 15.4 µM
  TGI: 32.3 µM
NCI/ADR-RES ovarian
  GI50: 13.9 µM
  TGI: 27.3 µM
OVCAR-3 ovarian
  GI50: 12.1 µM
  TGI: 25.5 µM
OVCAR-4 ovarian
  GI50: 14.4 µM
  TGI: 33.8 µM
OVCAR-5 ovarian
  GI50: 14.8 µM
  TGI: 28.1 µM
OVCAR-8 ovarian
  GI50: 14.2 µM
  TGI: 27.8 µM
PC-3 prostate
  GI50: 10.3 µM
  TGI: 26.5 µM
RPMI-8226 leukemia
  GI50: 2.6 µM
  TGI: 9.85 µM
RXF 393 renal
  GI50: 4.34 µM
  TGI: 17.4 µM
SF-268 CNS
  GI50: 18 µM
  TGI: 41.3 µM
SF-295 CNS
  GI50: 12.3 µM
  TGI: 24.7 µM
SF-539 CNS
  GI50: 12.3 µM
  TGI: 24.7 µM
SK-MEL-2 melanoma
  GI50: 16.6 µM
  TGI: 31.9 µM
SK-MEL-28 melanoma
  GI50: 15.3 µM
  TGI: 28.6 µM
SK-MEL-5 melanoma
  GI50: 8.94 µM
  TGI: 21.1 µM
SK-OV-3 ovarian
  GI50: 13.9 µM
  TGI: 27.6 µM
SN12C renal
  GI50: 13.5 µM
  TGI: 26.3 µM
SNB-19 CNS
  GI50: 14.7 µM
  TGI: 27.9 µM
SNB-75 CNS
  GI50: 4.85 µM
  TGI: 20.3 µM
SR leukemia
  GI50: 1.96 µM
  TGI: > 100 µM
SW-620 colon
  GI50: 4.98 µM
  TGI: 18.5 µM
T-47D breast
  GI50: 15.5 µM
  TGI: 38.4 µM
TK-10 renal
  GI50: 14.8 µM
  TGI: 29.6 µM
U251 CNS
  GI50: 9.79 µM
  TGI: 27.5 µM
UACC-257 melanoma
  GI50: 13.8 µM
  TGI: 27.2 µM
UACC-62 melanoma
  GI50: 14 µM
  TGI: 27 µM
UO-31 renal
  GI50: 11 µM
  TGI: 23 µM
